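GI50 marks 50% less growth. TGI marks complete inhibition of growth.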
How the values were obtained:
Assay in all cases: DTP human tumour cell line panel, 384-well format
[1] = system: 786-0 renal
[2] = system: A498 renal
[3] = system: A549 NSCLC
[4] = system: ACHN renal
[5] = system: BT-549 breast
[6] = system: CAKI-1 renal
[7] = system: COLO 205 colon
[8] = system: DU-145 prostate
[9] = system: EKVX NSCLC
[10] = system: HCT-116 colon
[11] = system: HCT-15 colon
[12] = system: HL-60(TB) leukemia
[13] = system: HOP-62 NSCLC
[14] = system: HOP-92 NSCLC
[15] = system: HS 578T breast
[16] = system: HT29 colon
[17] = system: IGROV1 ovarian
[18] = system: K-562 leukemia
[19] = system: KM12 colon
[20] = system: M14 melanoma
[21] = system: MALME-3M melanoma
[22] = system: MCF7 breast
[23] = system: MDA-MB-231 breast
[24] = system: MDA-MB-435 melanoma
[25] = system: MDA-MB-468 breast
[26] = system: MOLT-4 leukemia
[27] = system: NCI-H226 lung
[28] = system: NCI-H23 lung
[29] = system: NCI-H322M lung
[30] = system: NCI-H460 NSCLC
[31] = system: NCI-H522 lung
[32] = system: OVCAR-3 ovarian
[33] = system: OVCAR-4 ovarian
[34] = system: OVCAR-5 ovarian
[35] = system: OVCAR-8 ovarian
[36] = system: PC-3 prostate
[37] = system: RXF 393 renal
[38] = system: SF-268 CNS
[39] = system: SF-295 CNS
[40] = system: SF-539 CNS
[41] = system: SK-MEL-2 melanoma
[42] = system: SK-MEL-28 melanoma
[43] = system: SK-MEL-5 melanoma
[44] = system: SK-OV-3 ovarian
[45] = system: SN12C renal
[46] = system: SNB-19 CNS
[47] = system: SNB-75 CNS
[48] = system: SR leukemia
[49] = system: SW-620 colon
[50] = system: T-47D breast
[51] = system: TK-10 renal
[52] = system: U251 glioblastoma
[53] = system: UACC-257 melanoma
[54] = system: UACC-62 melanoma
[55] = system: UO-31 renal

Work on `COC1CCC(n2c([C@@H]3CCCC(=O)N3c3ccc(F)c(F)c3)nc3cc(-c4c(C)noc4C)ccc32)CC1` (stereo not given in full) yielded a GI50 [1] of 2.1 µM, a TGI [1] of 19.9 µM and a GI50 [2] of 6.19 µM. For the same compound, the TGI [2] was 19.4 µM, the GI50 [3] was 8.03 µM and the TGI [3] was 23.5 µM. It also gave a GI50 [4] of 3.62 µM, a TGI [4] of 16.6 µM and a GI50 [5] of 2.27 µM. It also gave a TGI [5] of 15.5 µM, a GI50 [6] of 0.532 µM and a TGI [6] of 13.2 µM. It also gave a GI50 [7] of 3.44 µM, a TGI [7] of 18.9 µM and a GI50 [8] of 12.8 µM. For the same compound, the TGI [8] was 60.4 µM, the GI50 [9] was 15.6 µM and the TGI [9] was 43.2 µM. The GI50 [10] was 4.48 µM, the TGI [10] was 18.4 µM and the GI50 [11] was 2.95 µM. The TGI [11] was 14.8 µM, the GI50 [12] was 0.0497 µM and the TGI [12] was 1.2 µM. For the same compound, the GI50 [13] was 2.92 µM, the TGI [13] was 15.4 µM and the GI50 [14] was 4.57 µM. The TGI [14] was 18.8 µM, the GI50 [15] was 0.716 µM and the TGI [15] was 14.2 µM. For the same compound, the GI50 [16] was 1.6 µM, the TGI [16] was 13.7 µM and the GI50 [17] was 3.36 µM. For the same compound, the TGI [17] was 15.5 µM, the GI50 [18] was 1.51 µM and the TGI [18] was 16.1 µM. For the same compound, the GI50 [19] was 13.6 µM, the TGI [19] was 28.3 µM and the GI50 [20] was 0.568 µM. The TGI [20] was 14.9 µM, the GI50 [21] was 1.04 µM and the TGI [21] was 6.35 µM. For the same compound, the GI50 [22] was 0.0402 µM, the TGI [22] was 12.4 µM and the GI50 [23] was 3.05 µM. For the same compound, the TGI [23] was 16.2 µM, the GI50 [24] was 7.03 µM and the TGI [24] was 23.9 µM. It also gave a GI50 [25] of 2.94 µM, a TGI [25] of 18.6 µM and a GI50 [26] of 2.05 µM. For the same compound, the TGI [26] was 14 µM, the GI50 [27] was 1.07 µM and the TGI [27] was 12.1 µM. The GI50 [28] was 10.2 µM, the TGI [28] was 25.1 µM and the GI50 [29] was 3.02 µM. It also gave a TGI [29] of 15.6 µM, a GI50 [30] of 3.29 µM and a TGI [30] of 16.8 µM. For the same compound, the GI50 [31] was 1.38 µM, the TGI [31] was 12.2 µM and the GI50 [32] was 2.9 µM. The TGI [32] was 16.1 µM, the GI50 [33] was 1.79 µM and the TGI [33] was 7.76 µM. The GI50 [34] was 11.3 µM, the TGI [34] was 58.7 µM and the GI50 [35] was 2.8 µM. It also gave a TGI [35] of 15.8 µM, a GI50 [36] of 3.97 µM and a TGI [36] of 19.5 µM. It also gave a GI50 [37] of 1.24 µM, a TGI [37] of 5.22 µM and a GI50 [38] of 11.9 µM. The TGI [38] was 25.6 µM, the GI50 [39] was 5.05 µM and the TGI [39] was 20 µM. It also gave a GI50 [40] of 5.76 µM, a TGI [40] of 19 µM and a GI50 [41] of 4.46 µM. For the same compound, the TGI [41] was 18.4 µM, the GI50 [42] was 7.88 µM and the TGI [42] was 21.6 µM. The GI50 [43] was 0.489 µM, the TGI [43] was 8.77 µM and the GI50 [44] was 3.96 µM. It also gave a TGI [44] of 16.2 µM, a GI50 [45] of 12 µM and a TGI [45] of 25.4 µM. For the same compound, the GI50 [46] was 11.5 µM, the TGI [46] was 27.6 µM and the GI50 [47] was 12.3 µM. It also gave a TGI [47] of 26 µM, a GI50 [48] of 1.22 µM and a TGI [48] of 13.8 µM. The GI50 [49] was 13.9 µM, the TGI [49] was 27.5 µM and the GI50 [50] was 1.87 µM. It also gave a TGI [50] of 7.11 µM, a GI50 [51] of 1.55 µM and a TGI [51] of 11.8 µM. The GI50 [52] was 12 µM, the TGI [52] was 25.9 µM and the GI50 [53] was 3.1 µM. The TGI [53] was 17.4 µM, the GI50 [54] was 0.385 µM and the TGI [54] was 12.1 µM. For the same compound, the GI50 [55] was 2.13 µM and the TGI [55] was 13.8 µM.
`CC(C)[C@@H](CS(=O)(=O)C(C)C)N1C(=O)[C@@](C)(CC(=O)O)C[C@H](c2cccc(Cl)c2)[C@H]1c1ccc(Cl)cc1` was tested, and the GI50 [1] was 36.5 µM, the TGI [1] was > 100 µM and the GI50 [2] was 0.295 µM. The TGI [2] was 11.3 µM, the GI50 [3] was 0.433 µM and the TGI [3] was 13 µM. It also gave a GI50 [4] of 0.228 µM, a TGI [4] of 0.949 µM and a GI50 [5] of 17.5 µM. It also gave a TGI [5] of 34.4 µM, a GI50 [6] of 0.204 µM and a TGI [6] of 13.1 µM. The GI50 [7] was 52.4 µM, the TGI [7] was > 100 µM and the GI50 [8] was 27.2 µM. For the same compound, the TGI [8] was > 100 µM, the GI50 [9] was 18.9 µM and the TGI [9] was 51.5 µM. For the same compound, the GI50 [10] was 0.334 µM, the TGI [10] was 15.1 µM and the GI50 [11] was 26.4 µM. It also gave a TGI [11] of 78.3 µM, a GI50 [12] of 17.3 µM and a TGI [12] of 31.2 µM. It also gave a GI50 [13] of 21.5 µM, a TGI [13] of 51.1 µM and a GI50 [14] of 17.7 µM. For the same compound, the TGI [14] was 40.4 µM, the GI50 [15] was 15.5 µM and the TGI [15] was 32.8 µM. The GI50 [16] was 37 µM, the TGI [16] was > 100 µM and the GI50 [17] was 12.1 µM. For the same compound, the TGI [17] was > 100 µM, the GI50 [18] was 20.6 µM and the TGI [18] was > 100 µM. For the same compound, the GI50 [19] was 0.319 µM, the TGI [19] was 10 µM and the GI50 [20] was 13.5 µM. It also gave a TGI [20] of 37.5 µM, a GI50 [21] of 0.45 µM and a TGI [21] of 19.8 µM. It also gave a GI50 [22] of 0.157 µM, a TGI [22] of 0.573 µM and a GI50 [23] of 20.5 µM. The TGI [23] was > 100 µM, the GI50 [24] was 20.7 µM and the TGI [24] was 46 µM. The GI50 [25] was 6.07 µM, the TGI [25] was 22.2 µM and the GI50 [26] was 0.117 µM. The TGI [26] was 0.246 µM, the GI50 [27] was 0.148 µM and the TGI [27] was 0.324 µM. For the same compound, the GI50 [28] was 14.6 µM, the TGI [28] was 36.9 µM and the GI50 [29] was 37.1 µM. The TGI [29] was 94.1 µM, the GI50 [30] was 29.3 µM and the TGI [30] was > 100 µM. For the same compound, the GI50 [31] was 20.1 µM, the TGI [31] was 49.3 µM and the GI50 [32] was 14.5 µM. For the same compound, the TGI [32] was 29.7 µM, the GI50 [33] was 18.3 µM and the TGI [33] was > 100 µM. The GI50 [34] was 38 µM, the TGI [34] was > 100 µM and the GI50 [35] was 21.1 µM. For the same compound, the TGI [35] was 92.3 µM, the GI50 [36] was 14 µM and the TGI [36] was 62.7 µM. The GI50 [37] was 13.1 µM, the TGI [37] was 36 µM and the GI50 [38] was 28.9 µM. The TGI [38] was > 100 µM, the GI50 [39] was 14.7 µM and the TGI [39] was 38.7 µM. The GI50 [40] was 16.5 µM, the TGI [40] was 35.2 µM and the GI50 [41] was 19.1 µM. The TGI [41] was 34.6 µM, the GI50 [42] was 42.5 µM and the TGI [42] was > 100 µM. For the same compound, the GI50 [43] was 0.994 µM, the TGI [43] was 15 µM and the GI50 [44] was 24 µM. The TGI [44] was 80.2 µM, the GI50 [45] was 32.1 µM and the TGI [45] was > 100 µM. The GI50 [46] was 41.7 µM, the TGI [46] was > 100 µM and the GI50 [47] was 26.1 µM. For the same compound, the TGI [47] was > 100 µM, the GI50 [48] was 0.053 µM and the TGI [48] was 0.187 µM. For the same compound, the GI50 [49] was 37 µM, the TGI [49] was > 100 µM and the GI50 [50] was 23.3 µM. The TGI [50] was 73.2 µM, the GI50 [51] was 35.2 µM and the TGI [51] was > 100 µM. For the same compound, the GI50 [52] was 15.5 µM, the TGI [52] was 37.8 µM and the GI50 [53] was 0.203 µM. For the same compound, the TGI [53] was 0.671 µM, the GI50 [54] was 0.151 µM and the TGI [54] was 12.8 µM. The GI50 [55] was 0.199 µM and the TGI [55] was 0.445 µM.

Source: PubChem BioAssay (NCI)
